Laboratory results published in ChEMBL document CHEMBL1133988 (Bioorg Med Chem Lett, 2001).
Values after ≈ are worked out from the molar mass of the structure shown.

Assays:
[1] = Binding affinity towards histone deacetylase (HDAC) enzyme derived from chicken liver (CL) cells using [3H]11; set-up: species or system Gallus gallus
Eimeria tenella = assay: In vitro antiprotozoal activity using […] bovine kidney host cells infected with Eimeria tenella; format: functional
Plasmodium falciparum = assay: In vitro antiprotozoal activity against Plasmodium falciparum infected erythrocytes; format: functional, organism-based
Histone deacetylase = assay: Inhibitory activity against histone deacetylase (HDAC) enzyme derived from partially purified extracts of human HeLa cells using [3H]11 as radioligand
[2] = Binding affinity towards HDAC enzyme derived from chicken liver (CL) cells; set-up: species or system Gallus gallus
[3] = Tested in vitro by mammalian antiproliferative functional assay using human HeLa cells or foreskin fibroblasts

CCC(=O)CCCCC[C@@H]1NC(=O)[C@H]2CCCCN2C(=O)[C@H]([C@@H](C)CC)NC(=O)[C@H](C(=O)c2c[nH]c3ccccc23)NC1=O
Ki [1]: 12 nM
MIC (Eimeria tenella): 0.125 µg/mL (≈ 0.206 µM)
IC50 (Plasmodium falciparum): 0.016 µg/mL (≈ 0.0263 µM)

CCC(=O)CCCCC[C@@H]1NC(=O)[C@H]2CCCCN2C(=O)[C@H]([C@@H](C)CC)NC(=O)[C@H](CC(=O)c2ccccc2[N+](=O)[O-])NC1=O
MIC (Eimeria tenella): 0.125 µg/mL (≈ 0.199 µM)
IC50 (Histone deacetylase): 91 nM
IC50 (Plasmodium falciparum): 0.5 µg/mL (≈ 0.797 µM)

CCC(=O)CCCCC[C@@H]1NC(=O)[C@H]2CCCCN2C(=O)[C@H]([C@@H](C)CC)NC(=O)[C@@H](C(=O)Cc2ccccc2)NC1=O
Ki [2]: 500 nM
AP50 [3]: >10000 ng/mL
MIC (Eimeria tenella): 0.5 µg/mL (≈ 0.858 µM)
IC50 (Plasmodium falciparum): 0.777 µg/mL (≈ 1.33 µM)

CCC(=O)CCCCC[C@@H]1NC(=O)[C@H]2CCCCN2C(=O)[C@H]([C@@H](C)CC)NC(=O)[C@@H](c2cnc3ccccc3c2O)NC1=O
Ki [2]: 500 nM
AP50 [3]: >10000 ng/mL
MIC (Eimeria tenella): > 1 µg/mL
IC50 (Plasmodium falciparum): 0.055 µg/mL (≈ 0.0905 µM)

CCC(=O)CCCCC[C@@H]1NC(=O)[C@H]2CCCCN2C(=O)[C@H]([C@@H](C)CC)NC(=O)[C@H](c2cnc3ccccc3c2O)NC1=O
Ki [2]: 1000 nM
AP50 [3]: >10000 ng/mL
MIC (Eimeria tenella): > 1 µg/mL
IC50 (Plasmodium falciparum): 0.04 µg/mL (≈ 0.0658 µM)

CCC(=O)CCCCC[C@@H]1NC(=O)[C@H]2CCCCN2C(=O)[C@H]([C@@H](C)CC)NC(=O)[C@H](c2cn(CC)c3ccccc3c2=O)NC1=O
Ki [2]: 2000 nM
AP50 [3]: >10000 ng/mL
MIC (Eimeria tenella): > 1 µg/mL
IC50 (Plasmodium falciparum): 0.24 µg/mL (≈ 0.377 µM)

CCC(=O)CCCCC[C@@H]1NC(=O)[C@H]2CCCCN2C(=O)[C@H]([C@@H](C)CC)NC(=O)[C@H](c2cn(OC)c3ccccc3c2=O)NC1=O
Ki [2]: 1500 nM
AP50 [3]: 10000 ng/mL
MIC (Eimeria tenella): 0.25 µg/mL (≈ 0.392 µM)
IC50 (Plasmodium falciparum): 0.04 µg/mL (≈ 0.0627 µM)

CCC(=O)CCCCC[C@@H]1NC(=O)[C@H]2CCCCN2C(=O)[C@H]([C@@H](C)CC)NC(=O)[C@H](CCOc2ccccc2)NC1=O
AP50 [3]: 1450 ng/mL
MIC (Eimeria tenella): 0.25 µg/mL (≈ 0.428 µM)
IC50 (Histone deacetylase): 34 nM

CCC(=O)CCCCC[C@@H]1NC(=O)[C@H]2CCCCN2C(=O)[C@H]([C@@H](C)CC)NC(=O)[C@H](Cc2c(Br)[nH]c3ccccc23)NC1=O
Ki [1]: 3 nM
MIC (Eimeria tenella): 0.015 µg/mL (≈ 0.0223 µM)
IC50 (Plasmodium falciparum): 0.025 µg/mL (≈ 0.0372 µM)

CCC(=O)CCCCC[C@@H]1NC(=O)[C@H]2CCCCN2C(=O)[C@H]([C@@H](C)CC)NC(=O)[C@H](Cc2c(-c3ccc4c(ccn4C)c3)[nH]c3ccccc23)NC1=O
Ki [1]: 5 nM
MIC (Eimeria tenella): 0.062 µg/mL (≈ 0.0858 µM)
IC50 (Plasmodium falciparum): 0.1 µg/mL (≈ 0.138 µM)

CCC(=O)CCCCC[C@@H]1NC(=O)[C@H]2CCCCN2C(=O)[C@H]([C@@H](C)CC)NC(=O)[C@H](Cc2cn(CC(=O)O)c3ccccc23)NC1=O
Ki [1]: 80 nM
MIC (Eimeria tenella): > 1 µg/mL
IC50 (Plasmodium falciparum): > 1 µg/mL

CCC(=O)CCCCC[C@@H]1NC(=O)[C@H]2CCCCN2C(=O)[C@H]([C@@H](C)CC)NC(=O)[C@H](CC(=O)Cc2ccccc2)NC1=O
Ki [2]: 2000 nM
AP50 [3]: >10000 ng/mL
MIC (Eimeria tenella): > 1 µg/mL
IC50 (Plasmodium falciparum): 0.85 µg/mL (≈ 1.42 µM)

CCC(=O)CCCCC[C@@H]1NC(=O)[C@H]2CCCCN2C(=O)[C@H]([C@@H](C)CC)NC(=O)[C@@H](C(=O)c2ccc3c(ccn3C)c2)NC1=O
Ki [1]: 20 nM
MIC (Eimeria tenella): 0.05 µg/mL (≈ 0.0804 µM)
IC50 (Plasmodium falciparum): 0.015 µg/mL (≈ 0.0241 µM)

CCC(=O)CCCCC[C@@H]1NC(=O)[C@H]2CCCCN2C(=O)[C@H]([C@@H](C)CC)NC(=O)[C@@H](C(=O)c2c[nH]c3ccccc23)NC1=O
Ki [1]: 30 nM
MIC (Eimeria tenella): 0.125 µg/mL (≈ 0.206 µM)
IC50 (Plasmodium falciparum): 0.07 µg/mL (≈ 0.115 µM)

CCC(=O)CCCCC[C@@H]1NC(=O)[C@H]2CCCCN2C(=O)[C@H]([C@@H](C)CC)NC(=O)[C@H](CC(=O)C(C)(C)C)NC1=O
Ki [2]: 2000 nM
AP50 [3]: >10000 ng/mL
MIC (Eimeria tenella): > 1 µg/mL
IC50 (Plasmodium falciparum): 0.775 µg/mL (≈ 1.38 µM)

CCC(=O)CCCCC[C@@H]1NC(=O)[C@H]2CCCCN2C(=O)[C@H]([C@@H](C)CC)NC(=O)[C@H](c2cnc3ccccc3c2N2CCCCC2)NC1=O [listing 1 of 2 here]
Ki [2]: 100 nM
IC50 (Histone deacetylase): 13 nM
IC50 (Plasmodium falciparum): 0.055 µg/mL (≈ 0.0815 µM)

CCC(=O)CCCCC[C@@H]1NC(=O)[C@H]2CCCCN2C(=O)[C@H]([C@@H](C)CC)NC(=O)[C@H](c2cnc3ccccc3c2N2CCCCC2)NC1=O [listing 2 of 2 here]
AP50 [3]: 2500 ng/mL
MIC (Eimeria tenella): 0.125 µg/mL (≈ 0.185 µM)

CCC(=O)CCCCC[C@@H]1NC(=O)[C@H]2CCCCN2C(=O)[C@H]([C@@H](C)CC)NC(=O)[C@H](c2cnc3ccccc3c2Cl)NC1=O [listing 1 of 2 here]
Ki [2]: 300 nM
IC50 (Histone deacetylase): 67 nM
IC50 (Plasmodium falciparum): 0.225 µg/mL (≈ 0.359 µM)

CCC(=O)CCCCC[C@@H]1NC(=O)[C@H]2CCCCN2C(=O)[C@H]([C@@H](C)CC)NC(=O)[C@H](c2cnc3ccccc3c2Cl)NC1=O [listing 2 of 2 here]
AP50 [3]: 10000 ng/mL
MIC (Eimeria tenella): 0.2 µg/mL (≈ 0.319 µM)

CCC(=O)CCCCC[C@@H]1NC(=O)[C@H]2CCCCN2C(=O)[C@H]([C@@H](C)CC)NC(=O)[C@H](Cc2c(-c3ccccc3)[nH]c3ccccc23)NC1=O
MIC (Eimeria tenella): > 1 µg/mL
IC50 (Histone deacetylase): 4 nM
IC50 (Plasmodium falciparum): 0.7 µg/mL (≈ 1.04 µM)

CCC(=O)CCCCC[C@@H]1NC(=O)[C@H]2CCCCN2C(=O)[C@H]([C@@H](C)CC)NC(=O)[C@H](Cc2c(-c3cc(OC)cc(OC)c3)[nH]c3ccccc23)NC1=O
MIC (Eimeria tenella): 0.125 µg/mL (≈ 0.171 µM)
IC50 (Histone deacetylase): 0.2 nM
IC50 (Plasmodium falciparum): 0.25 µg/mL (≈ 0.343 µM)

CCC(=O)CCCCC[C@@H]1NC(=O)[C@H]2CCCCN2C(=O)[C@H]([C@@H](C)CC)NC(=O)[C@H](CC2CN(OC)c3ccc(Br)cc32)NC1=O (stereo not given in full)
Ki [1]: 4500 nM
MIC (Eimeria tenella): 0.1 µg/mL (≈ 0.142 µM)
IC50 (Plasmodium falciparum): > 1 µg/mL

CCCCCCCCCCC(=O)C[C@@H]1NC(=O)[C@H](CCCCCC(=O)CC)NC(=O)[C@H]2CCCCN2C(=O)[C@H]([C@@H](C)CC)NC1=O
Ki [2]: > 1000 nM
AP50 [3]: >10000 ng/mL
MIC (Eimeria tenella): > 1 µg/mL
IC50 (Plasmodium falciparum): > 1 µg/mL

CCC(=O)CCCCC[C@@H]1NC(=O)[C@H]2CCCCN2C(=O)[C@H]([C@@H](C)CC)NC(=O)[C@H](Cc2cn(OC)c3ccc(Br)cc23)NC1=O
Ki [1]: 60 nM
MIC (Eimeria tenella): 0.5 µg/mL (≈ 0.712 µM)
IC50 (Plasmodium falciparum): 0.55 µg/mL (≈ 0.783 µM)

CCC(=O)CCCCC[C@@H]1NC(=O)[C@H]2CCCCN2C(=O)[C@H]([C@@H](C)CC)NC(=O)[C@H](Cc2c[nH]c3ccccc23)NC1=O
MIC (Eimeria tenella): 0.031 µg/mL (≈ 0.0522 µM)
IC50 (Histone deacetylase): 2 nM
IC50 (Plasmodium falciparum): 0.035 µg/mL (≈ 0.0589 µM)

CCCn1cc(C(=O)[C@H]2NC(=O)[C@H](CCCCCC(=O)CC)NC(=O)[C@H]3CCCCN3C(=O)[C@H]([C@@H](C)CC)NC2=O)c2ccccc21
MIC (Eimeria tenella): 0.125 µg/mL (≈ 0.192 µM)
IC50 (Histone deacetylase): 15 nM
IC50 (Plasmodium falciparum): 0.15 µg/mL (≈ 0.231 µM)

CCC(=O)CCCCC[C@@H]1NC(=O)[C@H]2CCCCN2C(=O)[C@H]([C@@H](C)CC)NC(=O)[C@H](Cc2cn(CN3CCCC3)c3ccccc23)NC1=O
MIC (Eimeria tenella): 0.031 µg/mL (≈ 0.0458 µM)
IC50 (Histone deacetylase): 0.2 nM
IC50 (Plasmodium falciparum): 0.035 µg/mL (≈ 0.0517 µM)

CCC(=O)CCCCC[C@@H]1NC(=O)[C@H]2CCCCN2C(=O)[C@H]([C@@H](C)CC)NC(=O)[C@H](Cc2cn(CCN)c3ccccc23)NC1=O
MIC (Eimeria tenella): > 1 µg/mL
IC50 (Histone deacetylase): 1.3 nM
IC50 (Plasmodium falciparum): 0.1 µg/mL (≈ 0.157 µM)

CCC(=O)CCCCC[C@@H]1NC(=O)[C@H]2CCCCN2C(=O)[C@H]([C@@H](C)CC)NC(=O)[C@H](Cc2cn(CC)c3ccccc23)NC1=O
Ki [1]: 10 nM
MIC (Eimeria tenella): 0.05 µg/mL (≈ 0.0804 µM)
IC50 (Plasmodium falciparum): 0.18 µg/mL (≈ 0.289 µM)

CCC(=O)CCCCC[C@@H]1NC(=O)[C@H]2CCCCN2C(=O)[C@H]([C@@H](C)CC)NC(=O)[C@H](Cc2cn(C)c3ccccc23)NC1=O
Ki [1]: 5 nM
MIC (Eimeria tenella): 0.125 µg/mL (≈ 0.206 µM)
IC50 (Plasmodium falciparum): 0.02 µg/mL (≈ 0.0329 µM)

CCC(=O)CCCCC[C@@H]1NC(=O)[C@H]2CCCCN2C(=O)[C@H]([C@@H](C)CC)NC(=O)[C@H](Cc2cn(OC)c3ccccc23)NC1=O [APICIDIN]
Ki [2]: 4 nM
AP50 [3]: 89 ng/mL
MIC (Eimeria tenella): 0.094 µg/mL (≈ 0.151 µM)
IC50 (Plasmodium falciparum): 0.058 µg/mL (≈ 0.093 µM)
